Measurements as given in US12018011B2, “Macrocyclic compounds and compositions, and methods of preparing and using the same” (Kura Oncology, Inc., priority 2021, dated 2024).

molecular target: T1, Recombinant human farnesyl transferase (FTase) (Homo sapiens, UniProt P49356); assay: FTase fluorescence assay (farnesylation of dansyl-GCVLS peptide); type: biochemical; details: recombinant human FTase 2.5 nM, Dansyl-GCVLS 85 nM, FPP 30 nM, 30° C., 50 minutes
T1 construct: purchased Crelux (Martinsried, Germany)
From the text: T24/83 cell line was purchased from the European Collection of Authenticated Cell Cultures (Salisbury, UK). Recombinant human farnesyl transferase (FTase) and geranylgeranyl transferase type-1 (GGTase) were obtained from Crelux (Martinsried, Germany). Dansyl labelled GCVLS peptide was purchased from Bachem (Torrance, CA), and Dansyl labelled GCVLL peptide was purchased from Bio Synthesis (Lewisville, TX). Farnesyl Pyrophosphate (FPP) and Geranylgeranyl pyrophosphate (GGPP) were purchased from Cayman (Ann Arbor, MI).
Specific biochemical activity of the compounds disclosed herein as FTase inhibitors was determined by measuring the ability of the compounds to block the farnesylation by recombinant FTase of fluorescent (i.e., dansyl-labeled) test substrates derived from the CAAX box of farnesylated proteins, such as the peptide GCVLS.
The IC50 value of the compounds disclosed herein as inhibitors of Ftase and/or GGTase, was determined by measuring the concentration (provided in nM) necessary to achieve inhibition of enzyme activity by 50% (IC50). […] Compounds having a low IC50 value against FTase, for example an IC50 (FTase)<100 nM, such as an IC50 (FTase)<10 nM, are preferred. Compounds having a low IC50 value against FTase and a high IC50 value against GGTase, for example an IC50 (FTase)<100 nM, such as an IC50 (FTase)<10 nM, and an IC50 (GGTase)>100 nM, are potent and selective inhibitors of FTase, and are particularly preferred.
The inhibition activities of the compounds disclosed herein against Ftase and GGTase were measured in the respective fluorescence assays as follows:
For the FTase assay, recombinant human FTase (2.5 nM), Dansyl labelled GCVLS peptide (85 nM), FPP (30 nM) and inhibitor were mixed in assay buffer (50 mM Tris, pH 7.5, 10 mM magnesium chloride, 10 μM zinc chloride, 0.08% CHAPS, 5 mM dithiothreitol) and incubated in a total volume of 20 μL at 30° C. for 50 minutes.
For both the FTase assay and GGTase assay, fluorescence intensity was detected (excitation at 340 nm and emission at 486 nm) using EnVision (PerkinElmer; Waltham, MA), IC50 determinations were performed using a sigmoidal dose-response model with Xlfit software (IDBS, Inc.; Boston, MA), and tipifarnib was used as a positive control. All the assay plates for each assay passed the QC criteria (S/B, Z factor).

Row | Structure (SMILES) | IC50 [nM]
1 | Cn1cncc1[C@]1(N)c2ccc(Cl)c(c2)CCc2cccc(c2)-c2cc(=O)n(C)c3ccc1cc23 (racemic) [(R)-4, (R)-3-amino-4^4-chloro-2^1-methyl-3-(1-methyl-1H-imidazol-5-yl)-2^1,2^2-dihydro-2(4,6)-quinolina-1,4(1,3)-dibenzenacyclohexaphan-2^2-one] | > 100
2 | Cn1cncc1[C@]1(O)c2ccc(Cl)c(c2)OCc2cccc(c2)-c2cc(=O)n(C)c3ccc1cc23 (racemic) [(R)-14, (R)-4^4-chloro-3-hydroxy-2^1-methyl-3-(1-methyl-1H-imidazol-5-yl)-2^1,2^2-dihydro-5-oxa-2(4,6)-quinolina-1,4(1,3)-dibenzenacyclohexaphan-2^2-one] | > 100
3 | Cn1cncc1[C@]1(N)c2ccc(Cl)c(c2)OCc2cccc(c2)-c2cc(=O)n(C)c3ccc1cc23 (racemic) [(R)-15, (R)-3-amino-4^4-chloro-2^1-methyl-3-(1-methyl-1H-imidazol-5-yl)-2^1,2^2-dihydro-5-oxa-2(4,6)-quinolina-1,4(1,3)-dibenzenacyclohexaphan-2^2-one] | > 100
4 | Cn1cncc1[C@]1(O)c2ccc(C#N)c(c2)OCc2cccc(c2)-c2cc(=O)n(C)c3ccc1cc23 (racemic) [(R)-18, (R)-3-hydroxy-2^1-methyl-3-(1-methyl-1H-imidazol-5-yl)-2^2-oxo-2^1,2^2-dihydro-5-oxa-2(4,6)-quinolina-1,4(1,3)-dibenzenacyclohexaphane-4^4-carbonitrile] | > 100
5 | Cn1cncc1[C@]1(N)c2ccc(C#N)c(c2)OCc2cccc(c2)-c2cc(=O)n(C)c3ccc1cc23 (racemic) [(R)-19, (R)-3-amino-2^1-methyl-3-(1-methyl-1H-imidazol-5-yl)-2^2-oxo-2^1,2^2-dihydro-5-oxa-2(4,6)-quinolina-1,4(1,3)-dibenzenacyclohexaphane-4^4-carbonitrile] | > 100
6 | [2H]C([2H])([2H])n1c(=O)cc2c3cc(ccc31)[C@](N)(c1cncn1C)c1ccc(C#N)c(c1)OCc1cccc-2c1 (racemic) [(R)-20, (R)-3-amino-2^1-(methyl-d3)-3-(1-methyl-1H-imidazol-5-yl)-2^2-oxo-2^1,2^2-dihydro-5-oxa-2(4,6)-quinolina-1,4(1,3)-dibenzenacyclohexaphane-4^4-carbonitrile] | > 100
7 | Cn1cncc1[C@]1(N)c2ccc(C#N)c(c2)OCc2cccc(c2)-c2cc(C#N)nc3ccc1cc23 (racemic) [(R)-21, (R)-3-amino-3-(1-methyl-1H-imidazol-5-yl)-5-oxa-2(4,6)-quinolina-1,4(1,3)-dibenzenacyclohexaphane-2^2,4^4-dicarbonitrile] | > 100
8 | Cn1cncc1[C@]1(O)c2ccc(Cl)c(c2)OCCc2cccc(c2)-c2cc(=O)[nH]c3ccc1cc23 (racemic) [(R)-25, (R)-4^4-chloro-3-hydroxy-3-(1-methyl-1H-imidazol-5-yl)-2^1,2^2-dihydro-5-oxa-2(4,6)-quinolina-1,4(1,3)-dibenzenacycloheptaphan-2^2-one] | > 100
9 | Cn1cncc1[C@]1(N)c2ccc(Cl)c(c2)OCCc2cccc(c2)-c2cc(=O)n(C)c3ccc1cc23 (racemic) [(R)-27, (R)-3-amino-4^4-chloro-2^1-methyl-3-(1-methyl-1H-imidazol-5-yl)-2^1,2^2-dihydro-5-oxa-2(4,6)-quinolina-1,4(1,3)-dibenzenacycloheptaphan-2^2-one] | > 100
10 | [2H]C([2H])([2H])n1c(=O)cc2c3cc(ccc31)[C@](O)(c1cncn1C)c1ccc(Cl)c(c1)OCCc1cccc-2c1 (racemic) [(R)-28, (R)-4^4-chloro-3-hydroxy-2^1-(methyl-d3)-3-(1-methyl-1H-imidazol-5-yl)-2^1,2^2-dihydro-5-oxa-2(4,6)-quinolina-1,4(1,3)-dibenzenacycloheptaphan-2^2-one] | > 100
11 | Cn1cncc1[C@]1(O)c2ccc(Cl)c(c2)OCCc2cccc(c2)-c2cc(=O)n(C3CC3)c3ccc1cc23 (racemic) [(R)-29, (R)-4^4-chloro-2^1-cyclopropyl-3-hydroxy-3-(1-methyl-1H-imidazol-5-yl)-2^1,2^2-dihydro-5-oxa-2(4,6)-quinolina-1,4(1,3)-dibenzenacycloheptaphan-2^2-one] | > 100
12 | Cn1cncc1[C@]1(N)c2ccc(Cl)c(c2)OCCc2cccc(c2)-c2cc(=O)n(C3CC3)c3ccc1cc23 (racemic) [(R)-30, (R)-3-amino-4^4-chloro-2^1-cyclopropyl-3-(1-methyl-1H-imidazol-5-yl)-2^1,2^2-dihydro-5-oxa-2(4,6)-quinolina-1,4(1,3)-dibenzenacycloheptaphan-2^2-one] | > 100
13 | [2H]C([2H])([2H])n1c(=O)cc2c3cc(ccc31)[C@](N)(c1nncn1C)c1ccc(Cl)c(c1)OCCc1cccc-2c1 (racemic) [(R)-34, (R)-3-amino-4^4-chloro-2^1-(methyl-d3)-3-(4-methyl-4H-1,2,4-triazol-3-yl)-2^1,2^2_ dihydro-5-oxa-2(4,6)-quinolina-1,4(1,3)-dibenzenacycloheptaphan-2^2-one] | > 100
14 | Cn1cnnc1[C@]1(N)c2ccc(Cl)c(c2)OCCc2cccc(c2)-c2cc(=O)n(C3CC3)c3ccc1cc23 (racemic) [(R)-35, (R)-3-amino-4^4-chloro-2^1-cyclopropyl-3-(4-methyl-4H-1,2,4-triazol-3-yl)-2^1,2^2-dihydro-5-oxa-2(4,6)-quinolina-1,4(1,3)-dibenzenacycloheptaphan-2^2-one] | > 100
15 | Cn1cncc1[C@]1(O)c2ccc(C#N)c(c2)OCCc2cccc(c2)-c2cc(=O)n(C)c3ccc1cc23 (racemic) [(R)-36, (R)-3-hydroxy-2^1-methyl-3-(1-methyl-1H-imidazol-5-yl)-2^2-oxo-2^1,2^2-dihydro-5-oxa-2(4,6)-quinolina-1,4(1,3)-dibenzenacycloheptaphane-4^4-carbonitrile] | > 100
16 | Cn1cncc1[C@]1(N)c2ccc(C#N)c(c2)OCCc2cccc(c2)-c2cc(=O)n(C)c3ccc1cc23 (racemic) [(R)-37, (R)-3-amino-2^1-methyl-3-(1-methyl-1H-imidazol-5-yl)-2^2-oxo-2^1,2^2-dihydro-5-oxa-2(4,6)-quinolina-1,4(1,3)-dibenzenacycloheptaphane-4^4-carbonitrile] | > 100
17 | Cn1cnnc1[C@]1(N)c2ccc(C#N)c(c2)OCCc2cccc(c2)-c2cc(=O)n(C)c3ccc1cc23 (racemic) [(R)-39, (R)-3-amino-21-methyl-3-(4-methyl-4H-1,2,4-triazol-3-yl)-2^2-oxo-2^1,2^2-dihydro-5-oxa-2(4,6)-quinolina-1,4(1,3)-dibenzenacycloheptaphane-4^4-carbonitrile] | > 100
18 | Cn1cncc1[C@]1(N)c2ccc(Cl)c(c2)COc2cccc(c2)-c2cc(=O)n(C)c3ccc1cc23 (racemic) [(R)-46, (R)-3-amino-4^4-chloro-2^1-methyl-3-(1-methyl-1H-imidazol-5-yl)-2^1,2^2-dihydro-6-oxa-2(4,6)-quinolina-1,4(1,3)-dibenzenacyclohexaphan-2^2-one] | > 100
19 | [2H]C([2H])([2H])n1c(=O)cc2c3cc(ccc31)[C@](N)(c1cncn1C)c1ccc(Cl)c(c1)COc1cccc-2c1 (racemic) [(R)-47, (R)-3-amino-4^4-chloro-2^1-(methyl-d3)-3-(1-methyl-1H-imidazol-5-yl)-2^1,2^2-dihydro-6-oxa-2(4,6)-quinolina-1,4(1,3)-dibenzenacyclohexaphan-2^2-one] | > 100
20 | Cn1cncc1[C@]1(N)c2ccc(Cl)c(c2)COc2cccc(c2)-c2cc(C#N)nc3ccc1cc23 (racemic) [(R)-48, (R)-3-amino-4^4-chloro-3-(1-methyl-1H-imidazol-5-yl)-6-oxa-2(4,6)-quinolina-1,4(1,3)-dibenzenacyclohexaphane-2^2-carbonitrile] | 10 to 100
21 | Cn1cnnc1[C@]1(N)c2ccc(Cl)c(c2)COc2cccc(c2)-c2cc(=O)n(C)c3ccc1cc23 (racemic) [(R)-51, (R)-3-amino-4^4-chloro-2^1-methyl-3-(4-methyl-4H-1,2,4-triazol-3-yl)-2^1,2^2-dihydro-6-oxa-2(4,6)-quinolina-1,4(1,3)-dibenzenacyclohexaphan-2^2-one] | > 100
22 | [2H]C([2H])([2H])n1c(=O)cc2c3cc(ccc31)[C@](O)(c1cncn1C)c1ccc(C#N)c(c1)COc1cccc-2c1 (racemic) [(R)-55, (R)-3-hydroxy-21-(methyl-d3)-3-(1-methyl-1H-imidazol-5-yl)-2^2-oxo-2^1,2^2-dihydro-6-oxa-2(4,6)-quinolina-1,4(1,3)-dibenzenacyclohexaphane-4^4-carbonitrile] | > 100
